In patent publication US20140378408A1, “NUCLEOSIDE 5'-PHOSPHOROTHIOATE ANALOGUES AND USES THEREOF” (BAR-ILAN UNIVERSITY, an Israeli University, priority 2012, published 2014):
Where two headings read alike, the source gives them in different places.

Columns and labels:
Aβ42-Zn^2+ aggregates = target: T1, Aβ42-Zn^2+ aggregates (Homo sapiens, UniProt P05067); experiment: Turbidity assay at 405 nm, Aβ42-Zn^2+ aggregates
T1 construct: Aggregation of monomeric Aβ42 was achieved by adding Zn(NO3)2 to a Aβ42 solution; purchased GL-Biochem (Shanghai)
Method: Aβ42 was weighted and dissolved in 10 mM NaOH, sonicated for 3 min and then freeze-dried. The freeze-dried Aβ42 was dissolved in 50 mM Tris-HCl (pH 7.4). The mixture was split and the pH of one of the samples was adjusted to 7.4 and the second sample to 6.6 by addition of 200 μM HCl. Two 300 μM Aβ42 mixtures were obtained. From these mixtures, controls and Aβ42-M^2+ aggregates were prepared by the addition of 1 mM Zn(NO3)2 or Cu(NO3)2 in DDW: 1. 200 μM Aβ42 (pH 7.4); 2. 200 μM Aβ42 (pH 6.6); 3.4×200 μM Aβ42-Zn^2+ (pH 7.4); 4.4×200 μM Aβ42-Cu^2+ (pH 6.6). The mixtures were left at RT for 2 h to form aggregates. 1 mM EDTA, ADP-β-S, and APCPP-γ-S in DDW were added to Aβ42-Zn^2+/Cu^2+ aggregates, then the mixtures were diluted with buffer to give the following mixtures: (i) 50 μM Aβ42-Cu^2+/Zn^2+; (ii) 50 μM Aβ42-Cu^2+/Zn^2+ containing 150 μM chelator (3 eq or) 300 μM chelator (6 eq) final volume 100 μl. The mixtures left at RT for 30 min before measurements, done in duplicate. 80 μl sample was taken for measurements in a quartz cuvette.
Aggregation of Aβ-metal ion complexes results in a turbid mixture that increases the light scattering in solution, leading to a higher absorbance at 405 nm (Storr et al., 2009).
Aggregation of monomeric Aβ42 was achieved by adding Zn(NO3)2 to a Aβ42 solution at pH 7.4, and Cu(NO3)2 to a Aβ42 solution at pH 6.6. […] The resultant Aβ42 mixtures were assayed for the resolubilization capacity of ADP-β-S and APCPP-γ-S in comparison to EDTA. […] At […] chelator, EDTA, ADP-β-S and APCPP-γ-S were almost equi-efficacious (FIG. 8B).

PC12 cells = experiment: Inhibition of Fe(II)-induced ROS formation in PC12 cells (DCFH-DA); assay type: cell-based; settings: read-out: IC50 inhibition of ROS formation
Method: In this study, nucleoside 5′-phosphorothioate analogues were explored as inhibitors of Fe(II)-induced oxidative stress in PC12 cells used as a neuronal model. Reduction of ROS production in PC12 cells by each one of the tested analogues was measured by DCFH-DA, a radical sensitive indicator. After DCFH-DA was removed, the tested analogue was added to the cells at a final concentration of 0.2-200 μM. Oxidation was initiated by the addition of FeSO4 (0.16 μM) to the wells. The plates were incubated for 1 h at 37° C., during which the absorbance was read by a Tecan fluorometer at 485/530 nm.

human NPP3 = target: T2, human NPP3 (Homo sapiens, UniProt O14638); experiment: Hydrolysis by human NPP3; assay type: in vitro ADME; settings: 100 μM, 1 h, compared to ATP
T2 construct: made in house; host or cells: COS-7 cells (transfected; protein extract / cell lysate)
T2 sequence (O14638 1-875): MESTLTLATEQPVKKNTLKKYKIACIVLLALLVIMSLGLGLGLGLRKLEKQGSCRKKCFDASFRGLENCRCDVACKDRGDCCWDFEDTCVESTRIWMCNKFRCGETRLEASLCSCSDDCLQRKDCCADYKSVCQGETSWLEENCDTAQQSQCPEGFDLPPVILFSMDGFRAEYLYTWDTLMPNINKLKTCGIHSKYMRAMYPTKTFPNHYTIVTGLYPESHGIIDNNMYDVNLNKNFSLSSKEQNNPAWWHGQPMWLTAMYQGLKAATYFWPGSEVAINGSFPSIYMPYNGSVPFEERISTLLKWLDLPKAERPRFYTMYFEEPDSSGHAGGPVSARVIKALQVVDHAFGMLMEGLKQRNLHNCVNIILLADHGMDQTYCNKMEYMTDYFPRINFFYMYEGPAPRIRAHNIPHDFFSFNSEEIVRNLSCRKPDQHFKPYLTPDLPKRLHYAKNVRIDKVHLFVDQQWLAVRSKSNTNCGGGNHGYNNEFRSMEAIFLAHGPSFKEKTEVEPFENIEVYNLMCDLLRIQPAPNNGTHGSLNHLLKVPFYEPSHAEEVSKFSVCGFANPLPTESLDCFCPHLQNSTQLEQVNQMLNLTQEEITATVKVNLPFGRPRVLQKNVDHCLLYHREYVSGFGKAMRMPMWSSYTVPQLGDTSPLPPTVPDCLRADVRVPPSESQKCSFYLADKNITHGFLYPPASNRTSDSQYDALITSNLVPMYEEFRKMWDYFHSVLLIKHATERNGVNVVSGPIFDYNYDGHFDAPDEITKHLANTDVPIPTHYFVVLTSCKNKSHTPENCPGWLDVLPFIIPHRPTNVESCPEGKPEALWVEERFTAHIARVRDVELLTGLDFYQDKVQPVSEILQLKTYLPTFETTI

T1 sequence (P05067 672-713 limits assumed): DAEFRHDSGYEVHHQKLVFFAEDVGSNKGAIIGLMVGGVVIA

| Structure (SMILES) | less effective than EDTA by (Aβ42-Zn^2+ aggregates; 3 eq) [%] | less effective than EDTA by (Aβ42-Zn^2+ aggregates; 6 eq) [%] | IC50 (PC12 cells; Rattus norvegicus, PC-12, 1 h) [µM] | Hydrolysis by NPP3 (human NPP3) [%] | IC50 (PC12 cells; PC12 cells, FeSO4 0.16 μM, 1 h, DCFH-DA) [µM] |
| --- | --- | --- | --- | --- | --- |
| Nc1ncnc2c1ncn2[C@@H]1O[C@H](COP(=O)(O)CP(=O)(O)OP(O)(O)=S)[C@@H](O)[C@H]1O [APCPP-γ-S, adenosine 5′-[Pγ-thio]-α,β-methylenetriphosphate] | 21 | 12 | 0.16 | – | – |
| Nc1ncnc2c1ncn2[C@@H]1O[C@H](COP(O)(=S)OP(=O)(O)CP(=O)(O)O)[C@@H](O)[C@H]1O (single isomer, unassigned; isomer b) [APPCP-α-S (isomer B), adenosine 5′-[Pα-thio]-β,γ-methylenetriphosphate] | – | – | – | ~4 | – |
| Nc1ncnc2c1ncn2[C@@H]1O[C@H](COP(O)(=S)OP(=O)(O)CP(=O)(O)O)[C@@H](O)[C@H]1O (single isomer, unassigned; isomer a) [APPCP-α-S (isomer A), adenosine 5′-[Pα-thio]-β,γ-methylenetriphosphate] | – | – | – | ~1 | – |
| Nc1ncnc2c1ncn2[C@@H]1O[C@H](COP(=O)(O)OP(O)(O)=S)[C@@H](O)[C@H]1O [ADP-β-S, adenosine 5′-[β-thio]diphosphate, reference compound] | 63 | 27 | – | – | 26 |
